A short description of data set [1]: Solubility of rhodacyanine compounds in human serum at 37° C.
In the next data set the test system is human melanoma LOX. Briefly: Survival of nude mice implanted with human melanoma LOX (Example 9). The format is in vivo, human cells in nude mice.
Data set [2] in a line: Solubility of Compounds 2, 4 and 5 in aqueous solution containing various cyclodextrin compounds (Example 4). The format is physicochemical. Conditions: for Solubility in water with cyclodextrin compounds: β-CD, HP-β-CD, γ-CD. As for the experimental part:
(§1) Solutions of HP-β-CD in demineralized water having concentrations varying from 0 w/v % to 45 w/v % were prepared as described in EXAMPLE 1. […] The results obtained are shown graphically in FIGS. 1 and 2.
Aqueous solutions of β-CD, HP-β-CD and γ-CD were prepared and solubility of Compounds 2, 4 and 5 in each of the aqueous solutions having the concentration varing as shown in TABLE 2 was determined as described in EXAMPLE 2. For the purpose of comparison, solubility of Compounds 2, 4 and 5 in water was also determined.

Data set [3] can be described thus: Solubility of Compound 1 in aqueous solution containing various solubilizers (Example 1). The conditions noted are these: for solubility at 24 h: 25° C. The format is physicochemical. As for the experimental part:
Solubilizers, β-CD, polyethylene glycol 400 and Pluronic F60, were added to demineralized water respectively to prepare solutions having concentrations shown in TABLE 1. […] The test tubes were fixed in thermostatic bath controlled at 25° C. and allowed to stand for 24 hours.

A short description of data set [4]: Solubility of Compound 1 in rat serum with HP-β-CD (Example 2). It is filed as physicochemical. Conditions: HP-β-CD 0 to 45 w/v %, 30 minutes, 25° C. As for the experimental part: as §1
Data set [5] in a line: Solubility of Compound 1 in aqueous solutions of β-CD, HP-β-CD and γ-CD (Example 3). The format is physicochemical.
A short description of data set [6]: Solubility of Compound 1 in fetal calf serum with HP-β-CD (Example 2). It is filed as physicochemical. Conditions: HP-β-CD 0 to 45 w/v %, 30 minutes, 25° C. As for the experimental part: as §1
Data set [7] can be described thus: Precipitation of Compound 1 in rat blood with HP-β-CD (Example 5). The format is physicochemical. The conditions noted are these: HP-β-CD concentration increases.
Data set [8] deals with human colon carcinoma cells (CX-1). Briefly: Tumor inhibition in nude mice implanted with human colon carcinoma cells CX-1 (Example 8). It is filed as in vivo, human cells in nude mouse (Swiss nu/nu). Conditions: for Tumor Inhibition: day 1, 2, 4, 6, 7, 8, 9. As for the experimental part: 2,500,000 human colon carcinoma cells (CX-1) were injected subcutaneously into each nude mouse (Swiss nu/nu) obtained from Taconic Farm and the mice were randomly allocated into a control group (five mice) and treatment groups (five mice per group).
The anti-cancer compositions containing HP-β-CD were prepared using the following method. HP-β-CD (45 g) was mixed with 100 ml of sterilized, double distilled water and stirred for four hours. Each of the compounds to be tested (20 mg) was mixed with 10 ml of HP-β-CD solution and sonicated for 60 minutes in the dark. This solution was then diluted in 5% glucose to yield a final compound concentration of 0.5 mg/ml, and further sonicated for 60 minutes in the dark to assure that the compound was completely dissolved. The anti-cancer compositions not containing HP-β-CD were also prepared using the same method except that 5% glucose solution was used instead of the HP-β-CD solution.
The control group received an equivalent volume of 5% glucose solution.
When the growth of tumors in the control group reached the exponential phase and the size of the tumor was palpable (usually 20 to 30 days after tumor implantation), the experiments were terminated. Tumors in each mouse were excised and weighed using an analytical balance. Total tumor weight in each group from five mice was calculated. Per cent tumor inhibition between the treated group and the control group was then calculated for each group.

The structures appear in SMILES notation.

For orientation: solubility means the concentration that dissolves in the medium under given conditions. On to `CCn1c(=Cc2oc3ccccc3[n+]2CC)sc(=C2Sc3ccccc3N2C)c1=O` [drawing 17], for which the solubility in data set [1] is less than 100 µg/mL.
In general, T/C refers to the ratio of treated to control. As to `CCN1C(=CC=c2sc(=Cc3cc[n+](CC)c4ccccc34)n(CC)c2=O)C=Cc2ccccc21` [Compound 8], the T/C is recorded as 227% in the data set with human melanoma LOX (20 mg/kg i.p., HP-β-CD added, day 1, 2, 3, 4, 8, 9) and 183% with human melanoma LOX (20 mg/kg i.p., HP-β-CD non-added, day 1, 2, 3, 4, 8, 9).
On to `CCn1c(=Cc2oc3c4ccccc4ccc3[n+]2CC)sc(=C2Sc3ccccc3N2C)c1=O`, for which the solubility in data set [1] was less than 100 µg/mL.
The same measure, in the same setting: next, `CCN1C(=CC=c2sc(=CC3=[N+](CC)CCS3)n(CC)c2=O)C=Cc2ccccc21` [drawing 16]: less than 100 µg/mL; `CCn1c(=Cc2scc(C)[n+]2CC)sc(=C2Sc3ccccc3N2C)c1=O`: more than 1000 µg/mL.
Regarding `CN1C(=c2sc(=Cc3oc4ccccc4[n+]3C)n(C)c2=O)Sc2ccccc21`, in [1], the concentration in solution (solubility) came to 300 µg/mL.
As for `CCn1c(=Cc2oc3ccccc3[n+]2CC)sc(=C2Sc3ccccc3N2C)c1=O` [Compound 7], the T/C in the data set with human melanoma LOX (10 mg/kg i.p., HP-β-CD added, day 1, 4, 8, 12, 16, 21, 25) came out at 200%; in the data set on human melanoma LOX (10 mg/kg i.p., HP-β-CD non-added, day 1, 4, 8, 12, 16, 21, 25) it was 175%.
Consider `CCn1c(=Cc2sc3ccccc3[n+]2CC)sc(=CC=C2SC=C(C)N2C)c1=O`, for which the solubility in [1] is less than 1000 µg/mL.
On the same count and under the same terms, the result for `CCn1c(=Cc2sc3c4ccccc4ccc3[n+]2CC)sc(=CC=C2Sc3ccc4ccccc4c3N2C)c1=O` [drawing 21] reads less than 100 µg/mL; that for `CCN1C(=CC=c2sc(=Cc3cc[n+](CC)c4ccccc34)n(CC)c2=O)C=Cc2ccccc21` [drawing 20], less than 100 µg/mL.
On to `CCN1C(=CC=c2sc(=CC3=[N+](CC)CCS3)n(CC)c2=O)C=Cc2ccccc21` [Compound 2], for which, in [2], the Solubility in water was determined as 0.03 mM/dl and the “Solubility in water with cyclodextrin compounds” value is on record as “improved by all of the cyclodextrin compounds used”. The “Solubility in aqueous solution of CD” value in [2] (β-CD 0.80 mM/dl) came out at 0.55 mM/dl.
`CCn1c(=CC2=[N+](CC)CCS2)sc(=C2Sc3ccccc3N2C)c1=O` registered a solubility in data set [1] of more than 1000 µg/mL.
With `CCn1c(=Cc2sc3c4ccccc4ccc3[n+]2CC)sc(=CC=C2Sc3ccc4ccccc4c3N2C)c1=O` [Compound 1], the solubility at 24 h in [3] (water only) came out at 1860 µg/mL; in [3] (water, peg 400 50%, organic solvent or mixture, Polyethylene glycol 400, 50 w/v %), 870 µg/mL; in [3] (water, Pluronic F60 0.02 w/v %), 3230 µg/mL; in data set [3] (water, Pluronic F60 0.2 w/v %) it was 3130 µg/mL; in data set [3] (water, β-CD 1.5 w/v %), 8170 µg/mL. Besides, the “increase of solubility in water by β-CD” value in data set [3] (β-CD vs compound itself in water) was found to be 4.4 times. For the same molecule, the “Compound 1 dissolved in serum (FIGS. 1 and 2)” value in data set [4] is listed as “much dissolved in the serums, depending on the increase in HP-β-CD concentration”; in data set [6], “much dissolved in the serums, depending on the increase in HP-β-CD concentration”. In data set [5] (β-CD, HP-β-CD and γ-CD), the “Solubility in water with cyclodextrins (FIG. 3)” value is reported as “all cyclodextrin compounds used improve solubility of Compound 1 in water”. Further, the “Solubility in water with γ-CD (FIG. 3)” value in data set [5] (γ-CD) is “γ-CD greatly improves the solubility”. Besides, the “precipitation of Compound 1 in blood” value in [7] is given as “effectively inhibited”. The “Tumor Inhibition” value stood at 48.8% in [8] (2 mg/kg i.p., HP-β-CD added); 29.1% in data set [8] (2 mg/kg i.p., HP-β-CD non-added); 30.2% in data set [8] (4 mg/kg i.p., HP-β-CD added); 20.9% in [8] (4 mg/kg i.p., HP-β-CD non-added). Also, the “tumor inhibition, with vs without HP-β-CD” value in data set [8] (solution containing HP-β-CD vs no HP-β-CD) is listed as “higher tumor inhibition than that containing no HP-β-CD”.
`CCn1c(=CC2=[N+](CC)CCS2)sc(=C2SC3=C(CCCC3)N2C)c1=O` had a solubility in [1] of more than 1000 µg/mL.
Turning to `CCn1c(=Cc2sc3c4ccccc4ccc3[n+]2CC)sc(=C2Sc3ccc4ccccc4c3N2C)c1=O` [Compound 5], in data set [2], the Solubility in water is ~ 0 mM/dl and the “Solubility in water with cyclodextrin compounds” value was “improved by all of the cyclodextrin compounds used”. The “Solubility in aqueous solution of CD” value in data set [2] (γ-CD 1.0 mM/dl) was found to be 0.02 mM/dl.
Turning to `CCn1c(=C2CCC[n+]3c2sc2ccccc23)sc(=C2Sc3ccccc3N2C)c1=O` [Compound 4], the “Solubility in aqueous solution of CD” value in [2] (HP-β-CD 4.2 mM/dl) is recorded as 0.03 mM/dl. Further, in data set [2], the Solubility in water is 0.001 mM/dl and the “Solubility in water with cyclodextrin compounds” value was “improved by all of the cyclodextrin compounds used”.

(Values after patent US5670530A, “Anti-cancer composition comprising rhodacyanine compound and cyclodextrin” (Fuji Photo Film Co., Ltd., priority 1995, dated 1997).)
